# Measurements taken from patent US10392368B2, “Pyrazolo and triazolo bicyclic compounds as JAK kinase inhibitors” (THERAVANCE BIOPHARMA R&D IP, LLC, priority 2017, dated 2019).
# Experiments:
# JAK1 = molecular target: T1, JAK1 (Homo sapiens, UniProt P23458); assay: Biochemical JAK1 kinase assay (LanthaScreen); conditions: read-out: JAK 1 (pKi) (converted)
# T1 construct: GST; purchased Life Technologies
# How it was run: (§1)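 TR-FRET readout (520/495 nm) using Tb-labelled pTyr701 antibody after EDTA stop, following 1 h ATP-started phosphorylation of GFP-STAT1 by recombinant GST-JAK. Compounds preincubated 1 h with enzyme and substrate; pIC50 from 4-parameter fit, Cheng-Prusoff gives pKi.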
# [1] = system: IL-2 stimulated pSTAT5 in Tall-1 T cells; assay: Cellular JAK3 potency assay: inhibition of IL-2 stimulated pSTAT5 in Tall-1 T cells; type: cell-based, human; conditions: Homo sapiens, TALL-1, IL-2 stimulated pSTAT5 in Tall-1 T cells; read-out: Tall-1 (pIC50) (converted)
# How it was run: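 In human Tall-1 T cells, IL-2 (300 ng/ml final, 30 min) drives STAT5 phosphorylation after a 1 h compound pretreatment. Lysates are assayed for pSTAT5 by AlphaLisa, and IC50 derived from signal versus concentration is expressed as pIC50.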
# JAK3 = molecular target: T2, JAK3 (Homo sapiens, UniProt P52333); assay: Biochemical JAK3 kinase assay (LanthaScreen); parameters: GST; purchased Life Technologies; conditions: for Ki: read-out: JAK 3 (pKi) (converted); for JAK3 (pKi)-JAK1 (pKi): selectivity: difference of pKi JAK3 and pKi JAK1
# T2 sequence (P52333 1-1124): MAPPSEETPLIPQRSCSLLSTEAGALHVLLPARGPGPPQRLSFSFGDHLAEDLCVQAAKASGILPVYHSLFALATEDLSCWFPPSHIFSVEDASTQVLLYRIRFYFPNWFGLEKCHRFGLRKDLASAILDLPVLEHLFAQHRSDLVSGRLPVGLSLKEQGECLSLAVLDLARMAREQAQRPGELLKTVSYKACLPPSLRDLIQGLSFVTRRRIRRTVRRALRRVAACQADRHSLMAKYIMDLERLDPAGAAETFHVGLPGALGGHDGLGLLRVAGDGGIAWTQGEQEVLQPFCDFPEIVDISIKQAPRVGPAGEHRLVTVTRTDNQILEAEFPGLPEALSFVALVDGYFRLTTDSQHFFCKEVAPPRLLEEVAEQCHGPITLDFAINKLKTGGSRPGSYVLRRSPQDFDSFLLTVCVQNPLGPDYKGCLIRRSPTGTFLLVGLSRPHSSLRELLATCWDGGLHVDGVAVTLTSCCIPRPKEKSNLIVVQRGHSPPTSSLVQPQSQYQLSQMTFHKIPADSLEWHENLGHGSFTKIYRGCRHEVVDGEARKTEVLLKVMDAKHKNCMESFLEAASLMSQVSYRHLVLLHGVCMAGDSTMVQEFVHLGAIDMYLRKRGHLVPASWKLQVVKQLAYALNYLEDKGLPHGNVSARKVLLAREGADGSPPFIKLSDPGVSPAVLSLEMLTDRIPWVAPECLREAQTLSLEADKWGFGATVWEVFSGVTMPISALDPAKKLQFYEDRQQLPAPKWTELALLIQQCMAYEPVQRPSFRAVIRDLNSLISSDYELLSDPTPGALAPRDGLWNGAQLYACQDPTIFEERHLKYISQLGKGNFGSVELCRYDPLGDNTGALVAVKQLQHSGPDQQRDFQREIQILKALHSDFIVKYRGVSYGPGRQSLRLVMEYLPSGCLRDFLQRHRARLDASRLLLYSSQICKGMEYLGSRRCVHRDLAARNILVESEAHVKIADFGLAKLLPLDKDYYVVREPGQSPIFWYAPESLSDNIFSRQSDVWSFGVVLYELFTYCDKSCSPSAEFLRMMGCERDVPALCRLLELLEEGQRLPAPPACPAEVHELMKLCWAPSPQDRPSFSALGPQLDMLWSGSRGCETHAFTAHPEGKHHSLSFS
# How it was run: as §1
# T1 sequence (P23458 whole entry): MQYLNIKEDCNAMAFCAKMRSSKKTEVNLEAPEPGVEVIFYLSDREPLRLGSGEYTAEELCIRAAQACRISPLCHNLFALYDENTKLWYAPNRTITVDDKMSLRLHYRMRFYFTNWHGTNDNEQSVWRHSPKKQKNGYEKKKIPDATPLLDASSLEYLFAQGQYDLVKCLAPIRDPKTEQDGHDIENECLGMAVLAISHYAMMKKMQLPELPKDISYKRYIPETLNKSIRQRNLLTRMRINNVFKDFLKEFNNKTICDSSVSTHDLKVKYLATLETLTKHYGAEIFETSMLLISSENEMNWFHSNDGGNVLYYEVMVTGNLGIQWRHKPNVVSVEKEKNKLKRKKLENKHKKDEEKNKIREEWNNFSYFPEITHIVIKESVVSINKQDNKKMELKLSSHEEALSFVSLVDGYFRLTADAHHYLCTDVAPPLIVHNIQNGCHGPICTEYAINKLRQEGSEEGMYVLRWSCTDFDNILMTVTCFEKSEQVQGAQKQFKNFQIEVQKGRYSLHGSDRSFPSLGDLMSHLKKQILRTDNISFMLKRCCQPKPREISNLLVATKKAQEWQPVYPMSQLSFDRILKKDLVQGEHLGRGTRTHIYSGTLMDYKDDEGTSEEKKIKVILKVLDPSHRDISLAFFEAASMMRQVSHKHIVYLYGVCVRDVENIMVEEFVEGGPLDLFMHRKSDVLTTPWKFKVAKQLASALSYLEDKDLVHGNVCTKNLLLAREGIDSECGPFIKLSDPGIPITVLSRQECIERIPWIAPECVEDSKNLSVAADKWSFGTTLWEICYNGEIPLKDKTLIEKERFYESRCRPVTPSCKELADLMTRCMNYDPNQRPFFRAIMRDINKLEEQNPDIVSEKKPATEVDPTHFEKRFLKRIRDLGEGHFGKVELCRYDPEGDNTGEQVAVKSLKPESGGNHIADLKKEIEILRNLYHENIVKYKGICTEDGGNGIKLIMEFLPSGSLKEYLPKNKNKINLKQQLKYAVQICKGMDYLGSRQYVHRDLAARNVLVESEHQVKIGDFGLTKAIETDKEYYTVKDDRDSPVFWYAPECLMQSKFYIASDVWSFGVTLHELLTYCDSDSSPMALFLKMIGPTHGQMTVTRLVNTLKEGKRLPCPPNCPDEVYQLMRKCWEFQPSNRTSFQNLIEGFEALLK
Compound,Ki (JAK1) [nM],IC50 [1] [nM],Ki (JAK3) [nM],JAK3 (pKi)-JAK1 (pKi) (JAK3)
"CN(C)C/C=C/C(=O)N1CC(COc2cc(-c3ccc(O)cc3)cc3[nH]ncc23)C1 [Compound 1, (E)-4-(dimethylamino)-1-(3-(((6-(4-hydroxyphenyl)-1H-indazol-4-yl)oxy)methyl)azetidin-1-yl)but-2-en-1-one]",> 100,31.6 to 200,< 0.1,A (a value of 3 or above)
"C=CC(=O)N1CC[C@H](Oc2cc(-c3ccc(O)c(Cl)c3)cc3[nH]ncc23)C1 [Compound 2, (S)-1-(3-((6-(3-chloro-4-hydroxyphenyl)-1H-indazol-4-yl)oxy)pyrrolidin-1-yl)prop-2-en-1-one]",> 100,< 31.6,< 0.1,A (a value of 3 or above)
"CN(C)C/C=C/C(=O)N1CC(C(C)(C)Oc2cc(-c3ccc(O)c(Cl)c3)cc3[nH]ncc23)C1 [Compound 3, (E)-1-(3-(2-((6-(3-chloro-4-hydroxyphenyl)-1H-indazol-4-yl)oxy)propan-2-yl)azetidin-1-yl)-4-(dimethylamino)but-2-en-1-one]",> 100,31.6 to 200,0.1 to 1,A (a value of 3 or above)
"C=CC(=O)N1CC(COc2nc(-c3ccc(O)cc3)nc3[nH]ncc23)C1 [Compound 4, 1-(3-(((6-(4-hydroxyphenyl)-1H-pyrazolo[3,4-d]pyrimidin-4-yl)oxy)methyl)azetidin-1-yl)prop-2-en-1-one]",> 100,31.6 to 200,< 0.1,A (a value of 3 or above)
"CN(C)C/C=C/C(=O)N1CC(COc2cc(-c3ccc(O)c(F)c3)cc3[nH]ncc23)C1 [Compound 5, (E)-4-(dimethylamino)-1-(3-(((6-(3-fluoro-4-hydroxyphenyl)-1H-indazol-4-yl)oxy)methyl)azetidin-1-yl)but-2-en-1-one]",> 100,31.6 to 200,< 0.1,A (a value of 3 or above)
"C=CC(=O)N1CCO[C@@H](C(=O)Nc2cc(-c3ccc(O)cc3)cc3[nH]ncc23)C1 [Compound 6, (R)-4-acryloyl-N-(6-(4-hydroxyphenyl)-1H-indazol-4-yl)morpholine-2-carboxamide]",> 100,< 31.6,< 0.1,A (a value of 3 or above)
"C=CC(=O)N1CC[C@H](COc2cc(-c3ccc(O)cc3)cc3[nH]ncc23)C1 [Compound 7, (S)-1-(3-(((6-(4-hydroxyphenyl)-1H-indazol-4-yl)oxy)methyl)pyrrolidin-1-yl)prop-2-en-1-one]",> 100,31.6 to 200,0.1 to 1,A (a value of 3 or above)
"CN(C)C/C=C/C(=O)N1CC(C#N)(COc2cc(-c3ccc(O)c(F)c3)cc3[nH]ncc23)C1 [Compound 8, (E)-1-(4-(dimethylamino)but-2-enoyl)-3-(((6-(3-fluoro-4-hydroxyphenyl)-1Hindazol-4-yl)oxy)methyl)azetidine-3-carbonitrile]",> 100,< 31.6,< 0.1,A (a value of 3 or above)
"CN(C)C/C=C/C(=O)N1CCC(C)(Oc2cc(-c3ccc(O)cc3)cc3[nH]ncc23)CC1 [Compound 9, (E)-4-(dimethylamino)-1-(4-((6-(4-hydroxyphenyl)-1H-indazol-4-yl)oxy)-4-methylpiperidin-1-yl)but-2-en-1-one]",> 100,31.6 to 200,0.1 to 1,A (a value of 3 or above)
"C=CC(=O)N1CC(C(C)(C)Oc2cc(-c3ccc(O)cc3)nc3[nH]ncc23)C1 [Compound 20, 1-(3-(2-((6-(4-hydroxyphenyl)-1H-pyrazolo[3,4-b]pyridin-4-yl)oxy)propan-2-yl)azetidin-1-yl)prop-2-en-1-one]",> 100,< 31.6,< 0.1,A (a value of 3 or above)
"C=CC(=O)N1CC(C)(COc2nc(-c3ccc(O)c(F)c3)nc3[nH]ncc23)C1 [Compound 21, 1-(3-(((6-(3-fluoro-4-hydroxyphenyl)-1H-pyrazolo[3,4-d]pyrimidin-4-yl)oxy)methyl)-3-methylazetidin-1-yl)prop-2-en-1-one]",> 100,31.6 to 200,< 0.1,A (a value of 3 or above)
"C=CC(=O)N1CC(CC)(COc2cc(-c3ccc(O)cc3)nc3[nH]ncc23)C1 [Compound 22, 1-(3-ethyl-3-(((6-(4-hydroxyphenyl)-1H-pyrazolo[3,4-b]pyridin-4-yl)oxy)methyl)azetidin-1-yl)prop-2-en-1-one]",> 100,31.6 to 200,< 0.1,A (a value of 3 or above)
